Test results reported in patent US6706733B2, “Quinolinone derivative formulation and its production method” (Dainippon Ink and Chemicals, Inc., priority 1999, dated 2004).

Columns and labels:
[1] = Photostability test (6 months under direct sunlight, HPLC content); type: physicochemical; conditions: room temperature; for stability with respect to light compared among crystal forms: 6 months direct sunlight; for Residual rate of quinolinone derivative: transparent sealed container, nitrogen, direct sunlight
Method: 0.5 g of each of the crystal forms of the quinolinone derivative represented with chemical formula (I) were filled into a transparent and sealed container in a nitrogen atmosphere, and were stored for 6 months under direct sunlight at room temperature.
The content of each crystal form of the quinolinone derivative represented with chemical formula (I) was assayed over time by HPLC followed by a comparison of stability.

[2] = Absorption test in rats (plasma concentration after oral administration); type: in vivo, male SD rats; conditions: for Cmax (maximum plasma concentration): 100 mg/kg single oral administration by gastric tube, suspended in 0.5% aqueous methyl cellulose, plasma by HPLC; for Cmax (maximum plasma concentration) / AUC (area under the plasma concentration vs. time curve): fasted male SD rats; for AUC (area under the plasma concentration vs. time curve): 100 mg/kg single oral administration, trapezoidal equation plus elimination rate constant; for absorption as compared with the α-form crystals: rats, oral 100 mg/kg, regardless of whether crushed or not
Method: A comparison of absorption into bodies of rats was conducted for each of the crystal forms and their crushed products of the quinolinone derivative represented with chemical formula (I). Furthermore, each of the crystal forms of the quinolinone derivative represented with chemical formula (I) were crushed using an automated agate mortar.
The following provides an explanation of the test method.
100 mg/kg of each sample were administered orally in a single administration using a gastric tube to 3 male SD rats (age 6 weeks) fasted for 16 hours. The samples were administered after suspending in 0.5% aqueous methyl cellulose solution and preparing to a concentration of […]. Following administration, blood samples were collected over time from the tail vein using heparin-treated glass tubes, and the quinolinone derivative concentrations of the resulting plasma were assayed by HPLC.
The maximum Plasma concentration (Cmax) and area under the plasma concentration vs. time curve (AUC) were determined from the assayed values of the quinolinone derivative at each blood sampling time.
Furthermore, Cmax was determined using measured values, while AUC was determined by calculating according to a trapezoidal equation until the time of measurement, and using the elimination rate constant after that time. The Cmax and AUC of each crystal form of the quinolinone derivative represented with chemical formula (I) are described as comparative examples.

[3] = storage period 0 days (100% prior to storage)

SMILES	stability with respect to light compared among crystal forms [1]	Residual rate of quinolinone derivative [1, 3] [%]	Residual rate of quinolinone derivative ([1]; storage period 1 month) [%]	Residual rate of quinolinone derivative ([1]; storage period 6 months) [%]	Residual rate of quinolinone derivative ([1]; storage period 15 days) [%]	Cmax (maximum plasma concentration) [2] [ng/mL]	AUC (area under the plasma concentration vs. time curve) [2] [µg·h/mL]	absorption as compared with the α-form crystals [2]
CCCCCCCCOc1c(O)c2ccc(NC(=O)/C=C/c3cc(OC)c(O)c(OC)c3)cc2n(C)c1=O [γ-form crystals]	relatively stable	100	96.5	84.1	98.9	38000	325	superior absorption
CCCCCCCCOc1c(O)c2ccc(NC(=O)/C=C/c3cc(OC)c(O)c(OC)c3)cc2n(C)c1=O [Crushed δ-form crystals]						63000	597	
CCCCCCCCOc1c(O)c2ccc(NC(=O)/C=C/c3cc(OC)c(O)c(OC)c3)cc2n(C)c1=O [α-form crystals]	relatively stable	100	97.2	85.1	99.1	10000	73	
CCCCCCCCOc1c(O)c2ccc(NC(=O)/C=C/c3cc(OC)c(O)c(OC)c3)cc2n(C)c1=O [δ-form crystals]	extremely unstable	100	91.4	57.3	96.2	51000	512	superior absorption
CCCCCCCCOc1c(O)c2ccc(NC(=O)/C=C/c3cc(OC)c(O)c(OC)c3)cc2n(C)c1=O [Crushed β-form crystals]						67000	586	
CCCCCCCCOc1c(O)c2ccc(NC(=O)/C=C/c3cc(OC)c(O)c(OC)c3)cc2n(C)c1=O [Crushed γ-form crystals]						65000	575	
CCCCCCCCOc1c(O)c2ccc(NC(=O)/C=C/c3cc(OC)c(O)c(OC)c3)cc2n(C)c1=O [β-form crystals]	relatively stable	100	96.8	84.5	98.7	41000	375	superior absorption
CCCCCCCCOc1c(O)c2ccc(NC(=O)/C=C/c3cc(OC)c(O)c(OC)c3)cc2n(C)c1=O [Crushed α-form crystals]						33000	253	
